What was measured:
[1] = test system: HepG2; assay: Inhibitory concentration against cholesterol biosynthesis in HepG2 cells.; conditions: Homo sapiens
[2] = target: T1, Lanosterol synthase (Rattus norvegicus, UniProt P48450); assay: Inhibitory concentration against purified rat liver Oxidosqualene cyclase (OSC); NI means no inhibition
T1 sequence (P48450 whole entry): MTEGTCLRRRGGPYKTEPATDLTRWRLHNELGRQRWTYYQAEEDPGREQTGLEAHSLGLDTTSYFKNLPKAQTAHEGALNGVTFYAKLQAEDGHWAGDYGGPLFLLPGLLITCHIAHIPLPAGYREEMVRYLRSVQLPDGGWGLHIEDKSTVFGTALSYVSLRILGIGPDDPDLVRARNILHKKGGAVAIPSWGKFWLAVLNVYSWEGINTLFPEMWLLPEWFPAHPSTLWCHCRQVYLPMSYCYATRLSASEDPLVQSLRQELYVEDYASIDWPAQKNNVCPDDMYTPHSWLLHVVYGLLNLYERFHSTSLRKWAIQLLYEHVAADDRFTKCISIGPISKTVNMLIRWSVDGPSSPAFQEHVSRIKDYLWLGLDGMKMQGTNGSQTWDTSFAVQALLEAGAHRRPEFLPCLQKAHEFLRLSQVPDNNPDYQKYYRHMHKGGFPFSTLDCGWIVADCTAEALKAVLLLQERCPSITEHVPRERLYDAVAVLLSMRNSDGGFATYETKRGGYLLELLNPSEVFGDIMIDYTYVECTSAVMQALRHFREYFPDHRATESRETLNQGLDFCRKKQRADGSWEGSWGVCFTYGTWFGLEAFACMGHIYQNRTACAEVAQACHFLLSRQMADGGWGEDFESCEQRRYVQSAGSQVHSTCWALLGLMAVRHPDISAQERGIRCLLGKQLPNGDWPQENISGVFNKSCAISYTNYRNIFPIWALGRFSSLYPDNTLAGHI

SMILES | IC50 [1] [nM] | IC50 [2]
CC(C)CCCC(C)CCCC(C)N1CCCCC1 (stereo not given) | 30000 | 
C[C@@H]1[C@@H](O)CC[C@]2(C)CN(Cc3ccccc3)CC[C@@H]12 |  | Not Active

Next, values leading:

IC50 [1] [nM] | IC50 [2] | SMILES
12 |  | CCCCCCCCCCCCC(=O)N1CCC(C(C)CO)CC1 (stereo not given)
40 |  | CCCCCCCCCCCCN1CCC(C(C)CO)CC1 (stereo not given)
0.7 |  | CCCCCCCCCCCC(=O)N1CC[C@H]2[C@H](C)[C@@H](O)CC[C@]2(C)C1

Reference: ChEMBL document CHEMBL1126499, “Inhibition of 2,3-oxidosqualene cyclase by N-alkylpiperidines” (Bioorg Med Chem Lett, 1993)
